Consider 18 compounds from US9708267B2, “Activators of human pyruvate kinase” (The United States of America, as represented by the …, priority 2010, dated 2017).

What all share (assay type): biochemical
The target of one experiment is hPK, M2 (Homo sapiens, UniProt P14618). In words: luminescent pyruvate kinase-luciferase coupled assay (qHTS). To be noted: for activation at 57 µM / hPK, M2 Max. Res.: % activation at 57 μM of compound; for activation at 57 µM: read-out: hPK, M2 Max. Res.; for Emax: read-out: Max. Res. As for the experimental part: AC50 values were determined utilizing the luminescent pyruvate kinase-luciferase coupled assay (Inglese, J. et al, Quantitative high-throughput screening: a titration-based approach that efficiently identifies biological activities in large chemical libraries. Proc. Natl. Acad. Sci. U.S.A. 2006, 103, 11473-11478).
Luminescent Pyruvate Kinase-Luciferase Coupled Assay.
(§1) Production of a luminescent signal based on the generation of ATP by pyruvate kinase was determined by using the ATP-dependent enzyme firefly luciferase. Three μL of substrate mix (at r.t.) in assay buffer (50 mM imidazole pH 7.2, 50 mM KCl, 7 mM MgCl2, 0.01% tween 20, 0.05% BSA) was dispensed into Kalypsys (San Diego, Calif., USA) white solid bottom 1,536 well microtiter plates using a bottle-valve solenoid-based dispenser (Kalypsys). The final concentrations of substrates in the assay were 0.1 mM ADP and 0.5 mM PEP. Twenty-three nL of compound in DMSO were delivered with a 1,536-pin array tool, and 1 μL of enzyme mix in assay buffer (final concentration, 0.1 nM pyruvate kinase, 50 mM imidazole pH 7.2, 0.05% BSA, 4° C.) was added. Microtiter plates were incubated at r.t. for 1 hour and 2 uL of luciferase detection mix (Kinase-Glo from Promega, Madison, Wis., USA) at 4° C. protected from light, was added and luminescence was read with a ViewLux (Perkin Elmer, Waltham, Mass., USA) using a 2 second exposure/plate (with 2× binning). The final concentration of DMSO was 0.5% and found not to affect the assay signal.
Data was normalized for AC50 values to control columns containing uninhibited enzyme (n), and AC100 inhibition (i) according the following equation: Activation (%)=[(c−n)/(n−i)]*100 where c=compound, n=DMSO neutral, i=no enzyme control. A % activity of 100% is approximately a 2-fold increase over basal assay signal (% Activation by FBP was variable but averaged 100%). Monitoring of activation was accomplished using enzyme at 3× the final concentration.
All compounds were screened using a qHTS approach, where compounds are assayed using at least seven concentrations to generate concentration-response curves for every compounds. Briefly, qHTS uses an inter-plate dilution method where the first plate contains the highest concentration of a set of compounds in DMSO, while subsequent plates contain the same compounds in the same well locations, but at successive lower concentrations. Using the protocol outlined above, the rate was calculated as a plate throughput of 18 plates/hr or approximately 7 samples/sec on the Kalypsys robotic system which means that a 7 point CRC was obtained every second on the robotic system.
In general terms: In qHTS, concentration-response curves come from the screen itself.

Another experiment deals with PKL (Homo sapiens, UniProt P30613). Kind of experiment: luminescent pyruvate kinase-luciferase coupled assay, PKL isoform. To be noted: same assay system as for PKM2. As for the experimental part:
as §1
(§2) The same assay system was utilized to examine the activity of compound 4 and all related analogs versus PKL, PKM1 and PKR pyruvate kinase isoforms. No activity for any of the compounds were found against PKL, PKM1, or PKR.

The next experiment concerns the target PKM1 (Homo sapiens, UniProt P14618). In words: luminescent pyruvate kinase-luciferase coupled assay, PKM1 isoform. As to conditions: same assay system as for PKM2. As to the method:
as §1, §2

Another experiment has as its target PKR (Homo sapiens, UniProt P30613). Kind of experiment: luminescent pyruvate kinase-luciferase coupled assay, PKR isoform. To be noted: same assay system as for PKM2. As for the experimental part: as §1, §2
Where [1] appears, read: Table 1, 0.1 mM ADP, 0.5 mM PEP, mean of three replicate experiments, read-out: hPK, M2 AC50.
The mark [2] stands for this setting: Table 1, mean of three replicate experiments.
[3] abbreviates: Table 2, mean of three replicate experiments.
Where [4] appears, read: Table 3, mean of three replicate experiments.
Where [5] appears, read: Table 2, 0.1 mM ADP, 0.5 mM PEP, mean of three replicate experiments, read-out: hPK, M2 AC50.
The mark [6] stands for this setting: Table 4, 0.1 mM ADP, 0.5 mM PEP, read-out: AC50.
The mark [7] stands for this setting: Table 4, maximum response (activation).
Where [8] appears, read: Table 3, 0.1 mM ADP, 0.5 mM PEP, mean of three replicate experiments, read-out: hPK, M2 AC50.

Molecules are shown by their SMILES. Where two headings read alike, the source gives them in different places.

hPK, M2, sequence (P14618 whole entry): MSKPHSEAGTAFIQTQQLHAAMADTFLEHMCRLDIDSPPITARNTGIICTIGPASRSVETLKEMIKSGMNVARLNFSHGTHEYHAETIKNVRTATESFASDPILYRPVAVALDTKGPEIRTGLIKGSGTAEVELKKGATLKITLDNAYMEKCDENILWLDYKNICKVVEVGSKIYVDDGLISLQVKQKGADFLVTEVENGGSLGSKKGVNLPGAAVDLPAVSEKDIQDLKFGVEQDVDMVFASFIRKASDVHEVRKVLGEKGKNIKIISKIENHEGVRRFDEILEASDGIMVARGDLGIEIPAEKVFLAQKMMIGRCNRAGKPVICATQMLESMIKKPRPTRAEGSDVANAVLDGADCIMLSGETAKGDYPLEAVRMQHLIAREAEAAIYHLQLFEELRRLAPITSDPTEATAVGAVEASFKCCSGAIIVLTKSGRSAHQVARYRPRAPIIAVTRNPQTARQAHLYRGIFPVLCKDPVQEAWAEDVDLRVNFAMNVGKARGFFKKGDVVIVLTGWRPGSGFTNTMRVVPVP
PKL, sequence (P30613 1-543 isoform P30613-2): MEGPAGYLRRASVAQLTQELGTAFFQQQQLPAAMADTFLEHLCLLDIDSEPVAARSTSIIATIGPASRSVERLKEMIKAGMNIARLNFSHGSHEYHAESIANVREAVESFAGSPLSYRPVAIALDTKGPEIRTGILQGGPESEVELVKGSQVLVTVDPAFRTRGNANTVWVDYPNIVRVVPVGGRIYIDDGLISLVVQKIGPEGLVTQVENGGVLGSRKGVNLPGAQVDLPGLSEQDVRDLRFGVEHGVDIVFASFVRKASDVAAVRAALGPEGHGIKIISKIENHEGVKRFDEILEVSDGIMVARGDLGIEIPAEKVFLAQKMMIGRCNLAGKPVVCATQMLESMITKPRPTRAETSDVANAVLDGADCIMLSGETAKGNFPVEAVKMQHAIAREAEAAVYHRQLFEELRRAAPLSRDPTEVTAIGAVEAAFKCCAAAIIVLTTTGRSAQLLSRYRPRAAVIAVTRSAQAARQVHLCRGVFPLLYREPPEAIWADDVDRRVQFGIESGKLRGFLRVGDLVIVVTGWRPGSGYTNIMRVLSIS
PKM1, sequence (P14618 1-531 isoform P14618-2): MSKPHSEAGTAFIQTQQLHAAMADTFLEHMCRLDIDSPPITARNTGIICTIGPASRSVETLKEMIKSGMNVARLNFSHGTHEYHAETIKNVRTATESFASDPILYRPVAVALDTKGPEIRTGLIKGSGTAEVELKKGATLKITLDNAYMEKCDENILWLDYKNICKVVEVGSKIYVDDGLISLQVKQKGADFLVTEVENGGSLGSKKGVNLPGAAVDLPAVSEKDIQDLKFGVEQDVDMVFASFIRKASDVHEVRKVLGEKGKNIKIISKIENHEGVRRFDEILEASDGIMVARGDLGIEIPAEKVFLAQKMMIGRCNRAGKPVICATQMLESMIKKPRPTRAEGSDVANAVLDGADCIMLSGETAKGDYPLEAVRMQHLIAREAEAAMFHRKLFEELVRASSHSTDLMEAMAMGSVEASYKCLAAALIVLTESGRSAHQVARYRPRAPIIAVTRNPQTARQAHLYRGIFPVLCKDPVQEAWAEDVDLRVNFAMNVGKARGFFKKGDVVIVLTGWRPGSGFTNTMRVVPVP
PKR, sequence (P30613 whole entry, canonical isoform): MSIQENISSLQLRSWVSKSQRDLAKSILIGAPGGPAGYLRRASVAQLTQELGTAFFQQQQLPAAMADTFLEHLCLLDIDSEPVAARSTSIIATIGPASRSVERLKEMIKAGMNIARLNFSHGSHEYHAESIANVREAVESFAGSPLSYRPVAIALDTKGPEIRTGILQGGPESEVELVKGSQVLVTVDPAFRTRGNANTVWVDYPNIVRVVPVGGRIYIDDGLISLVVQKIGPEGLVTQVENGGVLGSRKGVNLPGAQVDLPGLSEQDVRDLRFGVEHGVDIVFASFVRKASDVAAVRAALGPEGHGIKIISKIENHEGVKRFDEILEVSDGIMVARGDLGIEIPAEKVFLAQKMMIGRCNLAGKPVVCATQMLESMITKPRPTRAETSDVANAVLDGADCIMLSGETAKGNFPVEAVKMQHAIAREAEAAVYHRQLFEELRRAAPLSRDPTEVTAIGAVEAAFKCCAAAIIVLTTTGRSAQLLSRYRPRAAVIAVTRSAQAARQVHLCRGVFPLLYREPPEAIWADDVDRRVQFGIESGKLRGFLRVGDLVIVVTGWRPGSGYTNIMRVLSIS

For orientation: AC50 means the midpoint of the concentration-response curve, whichever way the signal moves. For `Cc1ccc(NS(=O)(=O)c2ccc3c(c2)CCC(=O)N3)cc1C` [Compound 4, N-(3,4-dimethylphenyl)-2-oxo-1,2,3,4-tetrahydroquinoline-6-sulfonamide], at hPK, M2 (setting [1]), the half-maximal activity concentration (AC50) was 0.65 µM. Moreover, the activation at 57 µM on hPK, M2 (setting [2]) worked out at 104%. The “hPK, M2 Max. Res.” value at hPK, M2 (setting [3]) came to 104%; on hPK, M2 (setting [4]), 104%. The “activity against PKL” value on PKL is “No activity”. Also, the “activity against PKM1” value at PKM1 is on record as “No activity”. At PKR, the “activity against PKR” value is recorded as “No activity”.
`O=C1CCc2cc(S(=O)(=O)Nc3cccc(-c4ccccc4)c3)ccc2N1` [Compound 18, N-(biphenyl-3-yl)-2-oxo-1,2,3,4-tetrahydroquinoline-6-sulfonamide]: the AC50 on hPK, M2 (setting [5]) turned out to be 14 µM. For the same compound, at hPK, M2 (setting [3]), the activation at 57 µM was 13%.
For the compound `Cc1cc(NS(=O)(=O)c2ccc3c(c2)CCC(=O)N3)ccc1F` [Compound 53, N-(4-fluoro-3-methylphenyl)-2-oxo-1,2,3,4-tetrahydroquinoline-6-sulfonamide], the concentration at half-maximal activity (AC50) at hPK, M2 (setting [6]) came out at 0.37 µM. The Emax on hPK, M2 (setting [7]) was determined as 121%.
Regarding `Cc1ccc(NS(=O)(=O)c2cc3c(cc2Cl)NC(=O)CO3)cc1C` [Compound 37, 6-chloro-N-(3,4-dimethylphenyl)-3-oxo-3,4-dihydro-2H-benzo[b][1,4]oxazine-7-sulfonamide], the AC50 at hPK, M2 (setting [8]) was determined as 0.58 µM. Besides, at hPK, M2 (setting [4]), the activation at 57 µM is 95%.
For the compound `O=C1CCc2cc(S(=O)(=O)Nc3ccc(Cl)cc3)ccc2N1` [Compound 20, N-(4-chlorophenyl)-2-oxo-1,2,3,4-tetrahydroquinoline-6-sulfonamide], the AC50 at hPK, M2 (setting [5]) is 3.2 µM. Moreover, the activation at 57 µM at hPK, M2 (setting [3]) is 94%.
On to `Cc1ccc(NS(=O)(=O)c2ccc3c(c2)CCC(=O)N3)cc1Cl` [Compound 43, N-(3-chloro-4-methylphenyl)-2-oxo-1,2,3,4-tetrahydroquinoline-6-sulfonamide], for which the AC50 on hPK, M2 (setting [6]) came to 0.26 µM. The Emax on hPK, M2 (setting [7]) was found to be 122%.
Turning to `Cc1cc(NS(=O)(=O)c2cc3c(cc2N[C@@H](C)CO)NC(=O)CC3)ccc1F` [Compound 72, (S)—N-(4-fluoro-3-methylphenyl)-7-(1-hydroxypropan-2-ylamino)-2-oxo-1,2,3,4-tetrahydroquinoline-6-sulfonamide], the AC50 at hPK, M2 (setting [6]) is 0.27 µM. On hPK, M2 (setting [7]), the Emax came to 99%.
Regarding `Cc1ccc(NS(=O)(=O)c2cc3c(cc2Br)NC(=O)CO3)cc1C` [Compound 38, 6-bromo-N-(3,4-dimethylphenyl)-3-oxo-3,4-dihydro-2H-benzo[b][1,4]oxazine-7-sulfonamide], the AC50 on hPK, M2 (setting [8]) was determined as 18 µM. At hPK, M2 (setting [4]), the activation at 57 µM is 103%.
As to `O=C1CCc2cc(S(=O)(=O)Nc3ccc4ccccc4c3)ccc2N1` [Compound 27, N-(naphthalen-2-yl)-2-oxo-1,2,3,4-tetrahydroquinoline-6-sulfonamide], the AC50 at hPK, M2 (setting [5]) was 2.9 µM. Moreover, the activation at 57 µM on hPK, M2 (setting [3]) came out at 87%.
On to `Cc1ccc(NS(=O)(=O)c2cc3c(cc2Cl)NC(=O)C3)cc1C` [Compound 57, 6-chloro-N-(3,4-dimethylphenyl)-2-oxoindoline-5-sulfonamide], for which the half-maximal activity concentration (AC50) at hPK, M2 (setting [6]) was 0.92 µM. The Emax at hPK, M2 (setting [7]) was 108%.
The like results for `N#Cc1cccc(NS(=O)(=O)c2ccc3c(c2)CCC(=O)N3)c1` [Compound 46, N-(3-cyanophenyl)-2-oxo-1,2,3,4-tetrahydroquinoline-6-sulfonamide] were, in that order, 9.19 µM and 97%.
Regarding `Cc1ccc(NS(=O)(=O)c2ccc3c(c2)CC(=O)N3)cc1C` [Compound 5, N-(3,4-dimethylphenyl)-2-oxoindoline-5-sulfonamide], on hPK, M2 (setting [1]), the AC50 came to 14.5 µM. The activation at 57 µM on hPK, M2 (setting [2]) was determined as 130%.
For the compound `CNc1cc2c(cc1S(=O)(=O)Nc1ccc(C)c(C)c1)CCC(=O)N2` [Compound 33, N-(3,4-dimethylphenyl)-7-(methylamino)-2-oxo-1,2,3,4-tetrahydroquinoline-6-sulfonamide], the AC50 at hPK, M2 (setting [8]) came to 0.16 µM. The activation at 57 µM on hPK, M2 (setting [4]) was 53%.
With `O=C1CCc2cc(S(=O)(=O)Nc3ccc(Cl)c(Cl)c3)c(F)cc2N1` [Compound 54, N-(3,4-dichlorophenyl)-7-fluoro-2-oxo-1,2,3,4-tetrahydroquinoline-6-sulfonamide], the AC50 at hPK, M2 (setting [6]) is 3.66 µM. On hPK, M2 (setting [7]), the Emax was determined as 109%.
Consider `Cc1ccc(NS(=O)(=O)c2cc3c(cc2C)NC(=O)CO3)cc1C` [Compound 39, N-(3,4-dimethylphenyl)-6-methyl-3-oxo-3,4-dihydro-2H-benzo[b][1,4]oxazine-7-sulfonamide], for which the AC50 on hPK, M2 (setting [8]) was 1.2 µM. The activation at 57 µM at hPK, M2 (setting [4]) turned out to be 106%.
As to `Cc1c(Cl)cccc1NS(=O)(=O)c1cc2c(cc1Cl)CCC(=O)N2` [Compound 59, 6-chloro-N-(3-chloro-2-methylphenyl)-2-oxo-1,2,3,4-tetrahydroquinoline-7-sulfonamide], the AC50 on hPK, M2 (setting [6]) is 1.16 µM. Moreover, at hPK, M2 (setting [7]), the Emax turned out to be 109%.
Take `Cc1ccc(NS(=O)(=O)c2cc3c(cc2-c2ccccc2)NC(=O)CO3)cc1C` [Compound 40, N-(3,4-dimethylphenyl)-3-oxo-6-phenyl-3,4-dihydro-2H-benzo[b][1,4]oxazine-7-sulfonamide]: the AC50 on hPK, M2 (setting [8]) was found to be 20.6 µM. For the same compound, at hPK, M2 (setting [4]), the activation at 57 µM came out at 36%.
For the compound `Cc1ccc(N(C)S(=O)(=O)c2ccc3c(c2)CCC(=O)N3)cc1C` [Compound 41, N-(3,4-dimethylphenyl)-N-methyl-2-oxo-1,2,3,4-tetrahydroquinoline-6-sulfonamide], the “Max. Res.” value at hPK, M2 (setting [7]) came out at 36.00. The AC50 at hPK, M2 (linkage variants of compound 4, read-out: AC50) turned out to be 23.1 µM. Besides, the Emax on hPK, M2 (linkage variants of compound 4) worked out at 36%.
